{"source": "patent US7875650B2", "about": "“Compounds and methods to increase anti-P-glycoprotein activity of baicalein by alkylation on the A ring” (Yale University, priority 2004, dated 2011)", "key": {"P-gp": {"target": "P-gp (Homo sapiens, UniProt P08183)", "sequence (P08183 whole entry)": "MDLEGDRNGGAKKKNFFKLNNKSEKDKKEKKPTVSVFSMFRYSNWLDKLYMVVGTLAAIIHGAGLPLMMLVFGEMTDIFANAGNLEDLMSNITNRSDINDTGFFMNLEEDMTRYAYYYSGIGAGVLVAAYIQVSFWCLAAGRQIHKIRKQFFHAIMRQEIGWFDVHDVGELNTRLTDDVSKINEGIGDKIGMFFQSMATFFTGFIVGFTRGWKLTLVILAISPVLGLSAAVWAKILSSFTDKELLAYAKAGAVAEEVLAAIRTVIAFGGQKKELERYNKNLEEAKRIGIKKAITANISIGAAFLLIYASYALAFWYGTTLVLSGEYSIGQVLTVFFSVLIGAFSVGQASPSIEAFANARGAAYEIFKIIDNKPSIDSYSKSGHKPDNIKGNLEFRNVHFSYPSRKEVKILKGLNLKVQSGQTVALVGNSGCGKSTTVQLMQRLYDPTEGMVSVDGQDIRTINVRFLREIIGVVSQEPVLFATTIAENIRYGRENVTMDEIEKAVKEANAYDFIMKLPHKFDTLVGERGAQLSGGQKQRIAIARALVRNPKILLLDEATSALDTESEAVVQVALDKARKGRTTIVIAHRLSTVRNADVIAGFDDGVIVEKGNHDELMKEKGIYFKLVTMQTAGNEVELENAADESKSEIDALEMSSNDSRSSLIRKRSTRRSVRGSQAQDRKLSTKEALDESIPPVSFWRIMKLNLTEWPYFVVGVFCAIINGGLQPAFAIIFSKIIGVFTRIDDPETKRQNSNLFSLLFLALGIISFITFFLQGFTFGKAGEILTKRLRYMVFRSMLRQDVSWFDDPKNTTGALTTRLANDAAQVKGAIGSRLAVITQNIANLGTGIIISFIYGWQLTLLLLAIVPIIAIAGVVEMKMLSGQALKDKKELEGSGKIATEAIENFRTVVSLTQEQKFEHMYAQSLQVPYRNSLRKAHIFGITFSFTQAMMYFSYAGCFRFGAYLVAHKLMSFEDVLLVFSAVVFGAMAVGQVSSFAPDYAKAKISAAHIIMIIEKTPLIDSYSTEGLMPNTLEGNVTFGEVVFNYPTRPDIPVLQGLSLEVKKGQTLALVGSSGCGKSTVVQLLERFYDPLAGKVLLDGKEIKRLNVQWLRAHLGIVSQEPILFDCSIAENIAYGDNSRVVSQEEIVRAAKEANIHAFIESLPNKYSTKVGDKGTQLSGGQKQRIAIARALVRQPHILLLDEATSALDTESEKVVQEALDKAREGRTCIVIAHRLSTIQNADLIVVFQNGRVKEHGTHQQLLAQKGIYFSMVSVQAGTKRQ", "conditions": "their (Boumendjel et al.) experiments; cited from earlier work"}, "P-gp 170 [1]": {"target": "T1, P-gp 170 (Homo sapiens, UniProt P08183)", "T1 sequence (P08183 whole entry)": "as above"}, "P-gp 170 [2]": {"target": "T1, P-gp 170", "test": "in vitro", "conditions": "for Amax (maximum accumulation of intracellular vinblastine), fold higher than control: human, 60 min", "source_text": "(§1) The KB/MDR cells, which overexpress human P-gp 170 protein, were used to evaluate the anti-P-gp 170 activity of drugs. […] The concentration of compound required to achieve 50% maximum accumulation of vinblastine is presented as the EC50 value. The maximum accumulation of intracellular vinblastine caused by the compounds in one hour is expressed as Amax (picomoles/10^6 cells). The cell growth inhibitory activity of compounds is presented as the concentration required to inhibit 50% growth of KB or KB/MDR cell lines (IC50) following three days of compound treatment.\n(§2) Vinblastine uptake by the KB/MDR cells. KB/MDR cells,^37 which overexpress human P-gp 170 protein, were seeded into 24-well tissue culture plates in RPMI 1640 medium plus 10% fetal bovine serum for 24 hours without the selecting agent doxorubicin (37 nM). The cells were then treated with [^3H]vinblastine plus synthetic flavones in HBSS for 60 minutes. The cells were washed twice with ice-cold PBS, harvested with 1 N NaOH, neutralized with 1 N HCl. The cell aliquots were transferred to scintillation vials and counted with a […] (Beckman, model LS 5000) after adding 10 mL scintillation fluids (SafeScint, American Bioanalytical Co., Natick, Mass.). Data presented are the mean of three independent experiments."}, "KB cells": {"tested_on": "KB cells", "test": "Growth inhibitory assay, KB cells", "assay_type": "cell-based, human", "conditions": "3 days", "procedure": "(§3) The cells were then fixed and stained with methylene blue in 50% MeOH, washed thoroughly with tap water, and dissolved with 0.5 mL 0.5% sarcosyl.^38 The amount of cellular protein, which is proportional to the cell number, is estimated by the absorption (OD595nm). The growth inhibitory assay, which is presented as an IC50 value, represents the concentration of compound required to inhibit 50% of cell growth. The cell doubling time of KB and KB/MDR cells is about 20 to 24 hours. The data presented are the mean of three independent experiments."}, "KB/MDR cells": {"tested_on": "KB/MDR cells", "test": "Growth inhibitory assay, KB/MDR cells", "assay_type": "cell-based, human", "conditions": "3 days", "procedure": "as §3"}, "[3]": {"target": "P-gp 170 (human P-glycoprotein) (Homo sapiens, UniProt P08183)", "sequence (P08183 whole entry)": "as above", "test": "in vitro", "conditions": "human", "source_text": "as §1, §2"}, "P-gp 170 [4]": {"target": "T1, P-gp 170", "test": "Inhibitory activity of Scute and its components against P-gp 170 efflux action (previous study)"}}, "note": "Read-outs that look alike come from different tables or passages of the source."}
{"smiles": "CCOc1cc2oc(-c3ccccc3)cc(=O)c2c(OC)c1OCC", "values": [{"measurement": "melting point", "value": "126 to 128", "unit": "°C"}]}
{"smiles": "O=c1cc(-c2ccccc2)oc2cc(OCc3ccccc3)cc(O)c12", "note": "[7-benzoxy-5-hydroxyflavone]", "values": [{"measurement": "Amax / drug accumulation as compared to cyclosporin A", "setting": "P-gp", "value": 25, "unit": "%"}]}
{"smiles": "O=c1cc(-c2ccccc2)oc2cc(O)c(O)c(O)c12", "note": "[Compound 1, baicalein]", "values": [{"measurement": "anti-P-gp 170 activity in words", "setting": "P-gp 170 [1]", "value": "active component"}]}
{"smiles": "CC(=O)Oc1c(O)cc2oc(-c3ccccc3)cc(=O)c2c1O", "note": "[Compound 2, 6-Acetoxy-5,7-dihydroxyflavone]", "values": [{"measurement": "EC50 relative to the parental compound (baicalein)", "setting": "P-gp 170 [2]", "value": "one-fourth"}, {"measurement": "melting point", "value": "205 to 207", "unit": "°C"}]}
{"smiles": "CC(=O)Oc1cc2oc(-c3ccccc3)cc(=O)c2c(O)c1OC(C)=O", "note": "[Compound 3, 6,7-Diacetoxy-5-hydroxyflavone]", "values": [{"measurement": "EC50 relative to the parental compound (baicalein)", "setting": "P-gp 170 [2]; KB/MDR cells", "value": "one-fourth"}]}
{"smiles": "COc1cc2oc(-c3ccccc3)cc(=O)c2c(OC)c1OC(C)=O", "note": "[Compound 5, 6-Acetoxy-5,7-dimethoxyflavone]", "values": [{"measurement": "melting point", "value": "208 to 210", "unit": "°C"}]}
{"smiles": "COc1cc2oc(-c3ccccc3)cc(=O)c2c(OC)c1OC", "note": "[Compound 6, 5,6,7-Trimethoxyflavone]", "values": [{"measurement": "EC50", "setting": "P-gp 170 [2]", "value": 4600, "unit": "nM"}]}
{"smiles": "COc1cc2oc(-c3ccccc3)cc(=O)c2c(O)c1OC", "note": "[Compound 8, 5-Hydroxy-6,7-dimethoxyflavone]", "values": [{"measurement": "EC50", "setting": "P-gp 170 [2]", "value": 5500, "unit": "nM"}]}
{"smiles": "CC(=O)Oc1cc2oc(-c3ccccc3)cc(=O)c2c(OCc2ccccc2)c1OC(C)=O", "note": "[Compound 9, 6,7-Diacetoxy-5-(benzoxy)flavone]", "values": [{"measurement": "anti-P-gp 170 efflux activity (EC50, Amax) in words", "setting": "P-gp 170 [2]", "value": "low EC50 but higher Amax in comparison with baicalein"}, {"measurement": "melting point", "value": "175 to 177", "unit": "°C"}]}
{"smiles": "CC(=O)Oc1cc2oc(-c3ccccc3)cc(=O)c2c(O)c1OCc1ccccc1", "note": "[Compound 10, 7-Acetoxy-6-(benzoxy)-5-hydroxyflavone]", "values": [{"measurement": "anti-P-gp 170 efflux activity (EC50, Amax) in words", "setting": "P-gp 170 [2]", "value": "low EC50 but higher Amax in comparison with baicalein"}]}
{"smiles": "COc1c2c(cc3oc(-c4ccccc4)cc(=O)c13)OC(c1ccccc1)(c1ccccc1)O2", "note": "[Compound 13, 6,7-(Diphenylmethylenedioxy)-5-methoxyflavone]", "values": [{"measurement": "anti-P-gp 170 efflux activity (EC50, Amax) in words", "setting": "P-gp 170 [2]", "value": "decreased"}, {"measurement": "cytotoxicity in words", "setting": "KB cells", "value": "decreased"}, {"measurement": "cytotoxicity in words", "setting": "KB/MDR cells", "value": "decreased"}]}
{"smiles": "CC(=O)Oc1c(OCc2ccccc2)cc2oc(-c3ccccc3)cc(=O)c2c1OC(C)=O", "note": "[Compound 14, 5,6Diacetoxy-7-(benzoxy)flavone]", "values": [{"measurement": "anti-P-gp 170 efflux activity (EC50, Amax) in words", "setting": "P-gp 170 [2]", "value": "low EC50 but higher Amax in comparison with baicalein"}, {"measurement": "melting point", "value": "174 to 175", "unit": "°C"}]}
{"smiles": "O=c1cc(-c2ccccc2)oc2cc(O)c(OCc3ccccc3)c(O)c12", "note": "[Compound 15, 6-(Benzoxy)-5,7-dihydroxyflavone]", "values": [{"measurement": "anti-P-gp 170 efflux activity (EC50, Amax) in words", "setting": "P-gp 170 [2]", "value": "low EC50 but higher Amax in comparison with baicalein"}]}
{"smiles": "O=c1cc(-c2ccccc2)oc2cc(OCc3ccccc3)c(OCc3ccccc3)c(O)c12", "note": "[Compound 16, 6,7-(Dibenzoxy)-5-hydroxy-flavone]", "values": [{"measurement": "cytotoxicity in words", "setting": "KB cells", "value": "decreased and lost"}, {"measurement": "cytotoxicity in words", "setting": "KB/MDR cells", "value": "decreased and lost"}]}
{"smiles": "CCCOc1c(O)cc2oc(-c3ccccc3)cc(=O)c2c1O", "note": "[Compound 17, 5,7-Dihydroxy-6-propoxyflavone]", "values": [{"measurement": "EC50", "setting": "P-gp 170 [2]", "value": 2000, "unit": "nM"}, {"measurement": "Amax (maximum accumulation of intracellular vinblastine), fold higher than control", "setting": "P-gp 170 [2]", "value": 9, "unit": "fold"}, {"measurement": "melting point", "value": "162 to 163", "unit": "°C"}]}
{"smiles": "CCCOc1cc2oc(-c3ccccc3)cc(=O)c2c(O)c1OCCC", "note": "[Compound 18, 5-Hydroxy-6,7-dipropoxyflavone]", "values": [{"measurement": "Amax (maximum accumulation of intracellular vinblastine), fold higher than control", "setting": "P-gp 170 [2]", "value": 10, "unit": "fold"}, {"measurement": "EC50 at 60 min", "setting": "[3]", "value": 1.4, "unit": "µM"}]}
{"smiles": "CCCOc1c(OC)cc2oc(-c3ccccc3)cc(=O)c2c1O", "note": "[Compound 21, 5-Hydroxy-7-methoxy-6-propoxyflavone]", "values": [{"measurement": "EC50", "setting": "P-gp 170 [2]", "value": 1200, "unit": "nM"}, {"measurement": "Amax (maximum accumulation of intracellular vinblastine), fold higher than control", "setting": "P-gp 170 [2]", "value": 9, "unit": "fold"}]}
{"smiles": "CCCOc1cc2oc(-c3ccccc3)cc(=O)c2c(OC)c1OCCC", "note": "[Compound 23, 5-Methoxy-6,7-dipropoxyflavone]", "values": [{"measurement": "EC50", "setting": "P-gp 170 [2]", "value": 900, "unit": "nM"}]}
{"smiles": "CC(=O)Oc1c(OC(C)=O)c(O)c2c(=O)cc(-c3ccccc3)oc2c1Br", "note": "[Compound 24, 6,7-Diacetoxy-8-bromo-5-hydroxyflavone]", "values": [{"measurement": "anti-P-gp 170 efflux activity (EC50, Amax) in words", "setting": "P-gp 170 [2]", "value": "less favorable activity against P-gp 170 activity than compound 3"}, {"measurement": "melting point", "value": "244 to 246", "unit": "°C"}]}
{"smiles": "O=c1cc(-c2ccccc2)oc2c(Br)c(O)c(O)c(O)c12", "note": "[Compound 25, 8-Bromo-5,6,7-trihydroxyflavone]", "values": [{"measurement": "anti-P-gp 170 efflux activity (EC50, Amax) in words", "setting": "P-gp 170 [2]", "value": "Amax did not change"}, {"measurement": "EC50 at 60 min", "setting": "[3]", "value": 15, "unit": "µM"}]}
{"smiles": "CCOc1c(O)cc2oc(-c3ccccc3)cc(=O)c2c1O", "note": "[Compound 32, 6-Ethoxy-5,7-dihydroxyflavone]", "values": [{"measurement": "EC50", "setting": "P-gp 170 [2]", "value": 2300, "unit": "nM"}]}
{"smiles": "CCOc1cc2oc(-c3ccccc3)cc(=O)c2c(O)c1OCC", "note": "[Compound 33, 6,7-Diethoxy-5-hydroxyflavone]", "values": [{"measurement": "EC50", "setting": "P-gp 170 [2]", "value": 1800, "unit": "nM"}]}
{"smiles": "CCOc1c(OC)cc2oc(-c3ccccc3)cc(=O)c2c1O", "note": "[Compound 38, 6-Ethoxy-5-hydroxy-7-methoxyflavone]", "values": [{"measurement": "melting point", "value": "133 to 134", "unit": "°C"}]}
{"smiles": "CCCCOc1cc2oc(-c3ccccc3)cc(=O)c2c(O)c1OCCCC", "note": "[Compound 45, 6,7-Dibutoxy-5-hydroxyflavone]", "values": [{"measurement": "melting point", "value": "116 to 117", "unit": "°C"}]}
{"smiles": "CCCCOc1cc2oc(-c3ccccc3)cc(=O)c2c(OC)c1OCCCC", "note": "[Compound 46, 6,7-Dibutoxy-5-methoxyflavone]", "values": [{"measurement": "melting point", "value": "103 to 105", "unit": "°C"}]}
{"smiles": "COc1c(O)cc(O)c2c(=O)cc(-c3ccccc3)oc12", "note": "[wogonin, 5,7-dihydroxy-8-methoxyflavone]", "values": [{"measurement": "anti-P-gp 170 activity in words", "setting": "P-gp 170 [1]", "value": "lack inhibitory activity"}]}
{"smiles": "COc1c(O[C@@H]2O[C@H](C(=O)O)[C@@H](O)[C@H](O)[C@H]2O)cc(O)c2c(=O)cc(-c3ccccc3)oc12", "note": "[wogonoside]", "values": [{"measurement": "anti-P-gp 170 activity in words", "setting": "P-gp 170 [4]", "value": "lack inhibitory activity"}]}
